Laboratory results published in US11028090B2 (Dong Wha Pharm. Co., Ltd., priority 2017, dated 2021).
Read-outs that look alike come from different tables or passages of the source.

How the values were obtained:
[1] = biological target: BRD4 (BD1+BD2) bromodomain (Homo sapiens (Human), UniProt O60885); experiment: BRD4 binding inhibition (AlphaScreen, GST-BRD4 vs tetraacetylated histone H4 peptide)
Procedure, shortened: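 GST-BRD4 (BD1+BD2) and biotinylated tetraacetyl-histone H4 peptide, each at 100 nM in HEPES pH 7.4 buffer with BSA and DTT, were combined with compound. Glutathione acceptor and streptavidin donor beads were added, then incubated 30 min at room temperature in the dark. Read-out was AlphaScreen signal.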

[2] = tested on: acute myelogenous leukemia cells (MV-4-11 cells); experiment: Cytotoxicity to acute myelogenous leukemia cells (MV-4-11 cells), CCK-8; conditions: Homo sapiens, MV4-11, 72 h
[3] = GST-BRD4 (BD1+BD2) / biotinylated acetyl-histone H4 (Lys5,8,12,16) peptide, read-out: IC50, BRD4 binding inhibition
[4] = GST-BRD4 (BD1+BD2) vs biotinylated acetyl-histone H4 peptide, AlphaScreen, read-out: BRD4 IC50
[5] = read-out: IC50, cytotoxicity against acute myelogenous leukemia cells
[6] = read-out: MV-4-11 Cytotoxicity IC50

Row | Structure (SMILES) | IC50 [1, 3] | IC50 [1, 4] | IC50 [2, 5] | IC50 [2, 6] | IC50 ([1]; IC50, BRD4 binding inhibition, GST-BRD4 (BD1+BD2) / biotinylated acetyl-histone H4 (Lys5,8,12,16) peptide)
1 | Cc1nnc2c(NCCCCNC(=O)c3ccccc3Cl)nc3cc(OCCN4CCOCC4)ccc3n12 [Example 439, 2-chloro-N-{4-[1-methyl-7-(2-morpholine-4-yl-ethoxy)-[1,2,4]triazolo[4,3-a]quinoxaline-4-ylamino]-butyl}-benzamide] | ≤ 50 nM | 38 nM | ≤ 200 nM | 100 nM | –
2 | COc1ccc2c(c1)nc(NCCCCNC(=O)Oc1ccccc1)c1nnc(C)n12 [Example 333, [4-(7-methoxy-1-methyl-[1,2,4]triazolo[4,3-a]quinoxaline-4-ylamino)-butyl]-carbamic acid phenylester] | – | 18 nM | ≤ 200 nM | 110 nM | ≤ 50 nM
3 | COc1cc2nc(NCCCCC(=O)NCc3ccc[nH]3)c3nnc(C)n3c2cc1OC [Example 652, 5-(7,8-dimethoxy-1-methyl-[1,2,4]triazolo[4,3-a]quinoxaline-4-ylamino)-pentanoic acid-(1H-pyrrole-2-ylmethyl)-amide] | ≤ 50 nM | 27 nM | ≤ 200 nM | 200 nM | –
4 | COc1cc2nc(NCCCCNC(=O)OC(C)C)c3nnc(C(C)C)n3c2cc1OC [Example 601, [4-(1-isopropyl-7,8-dimethoxy-[1,2,4]triazolo[4,3-a]quinoxaline-4-ylamino)-butyl]-carbamic acid isopropylester] | – | 56 nM | – | 230 nM | –
5 | C/C=C/C(=O)NCCCCNc1nc2cc(OCCOC)ccc2n2c(C)nnc12 [Example 379, butene-2-oic acid{4-[7-(2-methoxy-ethoxy)-1-methyl-[1,2,4]triazolo[4,3-a]quinoxaline-4-ylamino]-butyl}-amide] | ≤ 50 nM | 17 nM | – | 420 nM | –
6 | COc1ccc2c(c1)nc(NCCCCNC(=O)[C@@H](F)C(C)C)c1nnc(C)n12 [Example 286, 2-(S)-fluoro-N-[4-(7-methoxy-1-methyl-[1,2,4]triazolo[4,3-a]quinoxaline-4-ylamino)-butyl]-3-methyl-butyramide] | ≤ 50 nM | 30 nM | ≤ 200 nM | 26 nM | –
7 | COc1cc2nc(NCCCCNC(=O)CC(C)C)c3nnc(C)n3c2cc1C(F)(F)F [Example 476, N-[4-(7-methoxy-1-methyl-8-trifluoromethyl-[1,2,4]triazolo[4,3-a]quinoxaline-4-ylamino)-butyl]-3-methyl-butyramide] | ≤ 50 nM | 34 nM | – | 480 nM | –
8 | COc1ccc2c(c1)nc(NCCCCNC(=O)OC1CCCC1)c1nnc(C)n12 [Example 332, [4-(7-methoxy-1-methyl-[1,2,4]triazolo[4,3-a]quinoxaline-4-ylamino)-butyl]-carbamic acid cyclopentylester] | ≤ 50 nM | 17 nM | ≤ 200 nM | 10 nM | –
9 | COC(=O)c1ccc2c(c1)nc(NCCCCNC(=O)CC(C)C)c1nnc(C)n12 [Example 199, 1-methyl-4-[4-(3-methyl-butyrylamino)-butylamino]-[1,2,4]triazolo[4,3-a]quinoxaline-7-carboxylic acid methylester] | – | 58 nM | ≤ 200 nM | 49 nM | –

These reach a lower IC50 [1, 4]. Values come first.

Row | IC50 [1, 3] | IC50 [1, 4] | Structure (SMILES) | IC50 [2, 5] | IC50 [2, 6] | IC50 ([1]; IC50, BRD4 binding inhibition, GST-BRD4 (BD1+BD2) / biotinylated acetyl-histone H4 (Lys5,8,12,16) peptide)
10 | ≤ 50 nM | 16 nM | CCOc1ccc2c(c1)nc(NCCCCNC(=O)CC(C)C)c1nnc(C)n12 [Example 442, N-[4-(7-ethoxy-1-methyl-[1,2,4]triazolo[4,3-a]quinoxaline-4-ylamino)-butyl]-3-methyl-butyramide] | ≤ 200 nM | 110 nM | –
11 | ≤ 50 nM | 13 nM | COc1cc2nc(NCCCCNC(=O)CC(C)C)c3nnc(C)n3c2cc1NS(=O)(=O)CC(C)C [Example 567] | ≤ 200 nM | 200 nM | –
12 | ≤ 10 nM | 2 nM | COCCOc1ccc2c(c1)nc(NCCCCNC(=O)Cc1ccccc1)c1nnc(C)n12 [Example 420, N-{4-[7-(2-methoxy-ethoxy)-1-methyl-[1,2,4]triazolo[4,3-a]quinoxaline-4-ylamino]-butyl}-2-phenyl-acetamide] | ≤ 200 nM | 180 nM | –
13 | ≤ 50 nM | 12 nM | CCC(C)CC(=O)NCCCCNc1nc2cc(OC)ccc2n2c(C)nnc12 (stereo not shown) [Example 289, 3-methyl-pentanoic acid-[4-(7-methoxy-1-methyl-[1,2,4]triazolo[4,3-a]quinoxaline-4-ylamino)-butyl]-amide] | ≤ 200 nM | 26 nM | –
14 | ≤ 10 nM | 5 nM | Cc1nnc2c(NCCCCNC(=O)OCC(C)C)nc3cc(-n4ccnc4)ccc3n12 [Example 493] | ≤ 200 nM | 48 nM | –
15 | ≤ 50 nM | 11 nM | Cc1nnc2c(NCCCCNC(=O)[C@H](O)C(C)C)nc3cc(-c4nc5ccccc5n4C)ccc3n12 [Example 235, 2-(R)-hydroxy-3-methyl-N-{4-[1-methyl-7-(1-methyl-1H-benzimidazole-2-yl)-[1,2,4]triazolo[4,3-a]quinoxaline-4-ylamino]-butyl}-butyramide] | – | 390 nM | –
16 | ≤ 10 nM | 7 nM | COc1ccc2c(c1)nc(NCCCCNC(=O)[C@@H](O)C(C)C)c1nnc(C)n12 [Example 299, 2-(S)-hydroxy-N-[4-(7-methoxy-1-methyl-[1,2,4]triazolo[4,3-a]quinoxaline-4-ylamino)-butyl]-3-methyl-butyramide] | – | 375 nM | –
17 | ≤ 50 nM | 13 nM | Cc1nnc2c(NCCCCNC(=O)CC(C)C)nc3cc(-c4nc5ccccc5[nH]4)ccc3n12 [Example 224, N-{4-[7-(1H-benzoimidazole-2-yl)-1-methyl-[1,2,4]triazolo[4,3-a]quinoxaline-4-ylamino]-butyl}-3-methyl-butyramide] | ≤ 200 nM | 3 nM | –
18 | ≤ 10 nM | 6 nM | COc1c(C)ccc2c1nc(NCCCCNC(=O)[C@@H](O)C(C)C)c1nnc(C)n12 [Example 137, 2-(S)-hydroxy-N-[4-(6-methoxy-1,7-dimethyl-[1,2,4]triazolo[4,3-a]quinoxaline-4-ylamino)-butyl]-3-methyl-butyramide] | – | 370 nM | –
19 | ≤ 50 nM | 13 nM | COCCOc1ccc2c(c1)nc(NCCCCNC(=O)CC(C)C)c1nnc(C)n12 [Example 365, N-{4-[7-(2-methoxy-ethoxy)-1-methyl-[1,2,4]triazolo[4,3-a]quinoxaline-4-ylamino]-butyl}-3-methyl-butyramide] | ≤ 200 nM | 60 nM | –
20 | ≤ 50 nM | 14 nM | CCC(CC)C(=O)NCCCCNc1nc2cc(OCCOC)ccc2n2c(C)nnc12 [Example 381, 2-ethyl-N-{4-[7-(2-methoxy-ethoxy)-1-methyl-[1,2,4]triazolo[4,3-a]quinoxaline-4-ylamino]-butyl}-butyramide] | ≤ 200 nM | 200 nM | –
21 | ≤ 10 nM | 2 nM | CCOc1cc2nc(NCCCCNC(=O)OCC(C)C)c3nnc(C)n3c2cc1OCC [Example 176, [4-(7,8-diethoxy-1-methyl-[1,2,4]triazolo[4,3-a]quinoxaline-4-ylamino)-butyl]-carbamic acid isobutylester] | ≤ 200 nM | 110 nM | –
